The record followed here is patent US11319315B2, “Cyclohexyl acid triazole azoles as LPA antagonists” (BRISTOL-MYERS SQUIBB COMPANY, priority 2017, dated 2022).

The structures appear in SMILES notation.

The assay concerns the target T1, human LPA1 (Homo sapiens, UniProt Q92633).
T1 construct: expressed in transfected cells; host or cells: Chinese hamster ovary (CHO) cells
Put plainly: LPA1 functional antagonist assay (LPA-induced calcium flux in CHO cells overexpressing human LPA1). It counts as cell-based. Particulars: inhibition of calcium flux induced by 10 nM LPA, CHO cells overexpressing human LPA1; read-out: hLPA1 IC50. In short, it runs like this:
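Calcium flux was triggered by 10 nM LPA after 20 min room-temperature compound pre-incubation (final 0.08 nM to 5 μM, 0.5% DMSO) in human LPA1-overexpressing CHO cells carrying calcium dye. Buffer: HBSS with Ca/Mg, 20 mM HEPES, 0.1% fatty-acid-free BSA; IC50s from 4-parameter logistic fits.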
(A change in cytosolic calcium serves as a functional read-out for many receptors and channels.)

T1 sequence (Q92633 whole entry): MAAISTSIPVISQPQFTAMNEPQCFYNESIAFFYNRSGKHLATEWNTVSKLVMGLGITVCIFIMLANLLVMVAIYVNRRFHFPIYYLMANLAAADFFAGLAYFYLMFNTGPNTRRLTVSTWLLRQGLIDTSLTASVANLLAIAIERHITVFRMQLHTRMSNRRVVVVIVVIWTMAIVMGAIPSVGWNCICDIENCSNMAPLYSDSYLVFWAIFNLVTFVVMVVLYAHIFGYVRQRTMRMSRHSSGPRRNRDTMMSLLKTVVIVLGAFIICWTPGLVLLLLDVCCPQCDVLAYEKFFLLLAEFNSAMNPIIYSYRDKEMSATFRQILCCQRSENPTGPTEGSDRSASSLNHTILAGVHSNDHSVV

As a reminder, the IC50 is the concentration that gives 50% inhibition. As for `Cc1nc(-c2nnn(C)c2Cn2nnc(C3CCOCC3)n2)ccc1O[C@H]1CCC[C@H](C(=O)O)C1` [Example 308, (1S,3S)-3-{[2-methyl-6-(1-methyl-5-{[5-(oxan-4-yl)-2H-1,2,3,4-tetrazol-2-yl]methyl}-1H-1,2,3-triazol-4-yl)pyridin-3-yl]oxy}cyclohexane-1-carboxylic acid], the IC50 amounted to 714 nM. For `Cc1nc(-c2nnn(C)c2Cn2nnnc2CCC(C)C)ccc1O[C@H]1CCC[C@H](C(=O)O)C1` [Example 309, (1S,3S)-3-{[2-methyl-6-(1-methyl-5-{[5-(3-methylbutyl)-1H-1,2,3,4-tetrazol-1-yl]methyl}-1H-1,2,3-triazol-4-yl)pyridin-3-yl]oxy}cyclohexane-1-carboxylic acid], the IC50 is 191 nM.

With `Cc1nc(-c2nnn(C)c2Cn2nnc(CCC(C)C)n2)ccc1O[C@H]1CCC[C@H](C(=O)O)C1` [Example 310, (1S,3S)-3-{[2-methyl-6-(1-methyl-5-{[5-(3-methylbutyl)-2H-1,2,3,4-tetrazol-2-yl]methyl}-1H-1,2,3-triazol-4-yl)pyridin-3-yl]oxy}cyclohexane-1-carboxylic acid], the 50% inhibitory concentration (IC50) was found to be 24 nM. For `Cc1nc(-c2nnn(C)c2Cn2nnnc2N2CCCC2)ccc1O[C@H]1CCC[C@H](C(=O)O)C1` [Example 311, (1S,3S)-3-{[2-methyl-6-(1-methyl-5-{[5-(pyrrolidin-1-yl)-1H-1,2,3,4-tetrazol-1-yl]methyl}-1H-1,2,3-triazol-4-yl)pyridin-3-yl]oxy}cyclohexane-1-carboxylic acid] the value was 605 nM. For `Cc1nc(-c2nnn(C)c2Cn2nnc(N3CCCC3)n2)ccc1O[C@H]1CCC[C@H](C(=O)O)C1` [Example 312, (1S,3S)-3-{[2-methyl-6-(1-methyl-5-{[5-(pyrrolidin-1-yl)-2H-1,2,3,4-tetrazol-2-yl]methyl}-1H-1,2,3-triazol-4-yl)pyridin-3-yl]oxy}cyclohexane-1-carboxylic acid] the value was 234 nM; for `COc1cccc(Cc2nnnn2Cc2c(-c3ccc(O[C@H]4CCC[C@H](C(=O)O)C4)c(C)n3)nnn2C)c1` [Example 313, (1S,3S)-3-({6-[5-({5-[(3-methoxy-phenyl)methyl]-1H-1,2,3,4-tetrazol-1-yl}methyl)-1-methyl-1H-1,2,3-triazol-4-yl]-2-methylpyridin-3-yl}oxy)cyclohexane-1-carboxylic acid], 277 nM. As for `COc1cccc(Cc2nnn(Cc3c(-c4ccc(O[C@H]5CCC[C@H](C(=O)O)C5)c(C)n4)nnn3C)n2)c1` [Example 314, (1S,3S)-3-({6-[5-({5-[(3-methoxy-phenyl)methyl]-2H-1,2,3,4-tetrazol-2-yl}methyl)-1-methyl-1H-1,2,3-triazol-4-yl]-2-methylpyridin-3-yl}oxy)cyclohexane-1-carboxylic acid], the figure is 12 nM. `Cc1nc(-c2nnn(C)c2Cn2nnnc2CC2CCCC2)ccc1O[C@H]1CCC[C@H](C(=O)O)C1` [Example 315, (1S,3S)-3-{[6-(5-{[5-(cyclopentyl-methyl)-1H-1,2,3,4-tetrazol-1-yl]methyl}-1-methyl-1H-1,2,3-triazol-4-yl)-2-methylpyridin-3-yl]oxy}cyclohexane-1-carboxylic acid]: the IC50 is 154 nM. As for `Cc1nc(-c2nnn(C)c2Cn2nnc(OCCC3CC3)n2)ccc1O[C@H]1CCC[C@H](C(=O)O)C1` [Example 316, (1 S,3S)-3-((6-(5-((5-(2-cyclopropylethoxy)-2H-tetrazol-2-yl)methyl)-1-methyl-1H-1,2,3-triazol-4-yl)-2-methylpyridin-3-yl)oxy)cyclohexane-1-carboxylic acid], the figure is 22 nM; as for `Cc1nc(-c2nnn(C)c2Cn2ccc(Cc3ccccc3)n2)ccc1O[C@H]1CCC[C@H](C(=O)O)C1` [Example 317, (1S,3S)-3-((6-(5-((3-benzyl-1H-pyrazol-1-yl)methyl)-1-methyl-1H-1,2,3-triazol-4-yl)-2-methylpyridin-3-yl)oxy)cyclo-hexane-1-carboxylic acid], 63 nM. For `CCc1nnn(Cc2c(-c3ccc(O[C@H]4CCC[C@H](C(=O)O)C4)c(C)n3)nnn2C)n1` [Example 318, (1S,3S)-3-((6-(5-((5-ethyl-2H-tetrazol-2-yl)methyl)-1-methyl-1H-1,2,3-triazol-4-yl)-2-methylpyridin-3-yl)oxy)cyclo-hexane-1-carboxylic acid] the value was 414 nM. For the compound `Cc1nc(-c2nnn(C)c2Cn2nnnc2C2CC2)ccc1O[C@H]1CCC[C@H](C(=O)O)C1` [Example 319, (1S,3S)-3-((6-(5-((5-cyclopropyl-1H-tetrazol-1-yl)methyl)-1-methyl-1H-1,2,3-triazol-4-yl)-2-methylpyridin-3-yl)oxy)cyclo-hexane-1-carboxylic acid], the IC50 turned out to be 673 nM. As for `Cc1nc(-c2nnn(C)c2Cn2nnc(-c3cccc(F)c3)n2)ccc1O[C@H]1CCC[C@H](C(=O)O)C1` [Example 320, (1S,3S)-3-((6-(5-((5-(3-fluoro-phenyl)-2H-tetrazol-2-yl)methyl)-1-methyl-1H-1,2,3-triazol-4-yl)-2-methylpyridin-3-yl)oxy)cyclo-hexane-1-carboxylic acid], the figure is 58 nM; as for `Cc1nc(-c2nnn(C)c2Cn2nnnc2-c2cccc(F)c2)ccc1O[C@H]1CCC[C@H](C(=O)O)C1` [Example 321, (1S,3S)-3-((6-(5-((5-(3-fluoro-phenyl)-1H-tetrazol-1-yl)methyl)-1-methyl-1H-1,2,3-triazol-4-yl)-2-methylpyridin-3-yl)oxy)cyclo-hexane-1-carboxylic acid], 428 nM.

As for `Cc1nc(-c2nnn(C)c2Cn2nnc(-c3ccc(F)cc3)n2)ccc1O[C@H]1CCC[C@H](C(=O)O)C1` [Example 322, (1S,3S)-3-((6-(5-((5-(4-fluoro-phenyl)-2H-tetrazol-2-yl)methyl)-1-methyl-1H-1,2,3-triazol-4-yl)-2-methylpyridin-3-yl)oxy)cyclo-hexane-1-carboxylic acid], the IC50 was found to be 243 nM. For `Cc1nc(-c2nnn(C)c2Cn2nnnc2-c2ccc(F)cc2)ccc1O[C@H]1CCC[C@H](C(=O)O)C1` [Example 323, (1S,3S)-3-((6-(5-((5-(4-fluoro-phenyl)-1H-tetrazol-1-yl)methyl)-1-methyl-1H-1,2,3-triazol-4-yl)-2-methylpyridin-3-yl)oxy)cyclo-hexane-1-carboxylic acid] the value was 414 nM; for `Cc1nc(-c2nnn(C)c2Cn2nnc(Cc3ccc(Cl)cc3)n2)ccc1O[C@H]1CCC[C@H](C(=O)O)C1` [Example 324, (1S,3S)-3-((6-(5-((5-(4-chloro-benzyl)-2H-tetrazol-2-yl)methyl)-1-methyl-1H-1,2,3-triazol-4-yl)-2-methylpyridin-3-yl)oxy)cyclo-hexane-1-carboxylic acid], 38 nM. Take `Cc1nc(-c2nnn(C)c2Cn2nnnc2Cc2ccc(Cl)cc2)ccc1O[C@H]1CCC[C@H](C(=O)O)C1` [Example 325, (1S,3S)-3-((6-(5-((5-(4-chloro-benzyl)-1H-tetrazol-1-yl)methyl)-1-methyl-1H-1,2,3-triazol-4-yl)-2-methylpyridin-3-yl)oxy)cyclo-hexane-1-carboxylic acid]: the IC50 came out at 167 nM.

For the compound `Cc1ccc(Oc2nnn(Cc3c(-c4ccc(O[C@H]5CCC[C@H](C(=O)O)C5)c(C)n4)nnn3C)n2)cc1` [Example 326, (1S,3S)-3-((2-methyl-6-(1-methyl-5-((5-(p-tolyloxy)-2H-tetrazol-2-yl)methyl)-1H-1,2,3-triazol-4-yl)pyridin-3-yl)oxy)cyclohexane-1-carboxylic acid], the IC50 amounted to 23 nM. For `Cc1nc(-c2nnn(C)c2Cn2nnc(CC(C)C)n2)ccc1O[C@H]1CCC[C@H](C(=O)O)C1` [Example 327, (1S,3S)-3-((6-(5-((5-isobutyl-2H-tetrazol-2-yl)methyl)-1-methyl-1H-1,2,3-triazol-4-yl)-2-methylpyridin-3-yl)oxy)cyclohexane-1-carboxylic acid] the value was 28 nM; for `Cc1nc(-c2nnn(C)c2Cn2nnnc2CC(C)C)ccc1O[C@H]1CCC[C@H](C(=O)O)C1` [Example 328, (1S,3S)-3-((6-(5-((5-isobutyl-1H-tetrazol-1-yl)methyl)-1-methyl-1H-1,2,3-triazol-4-yl)-2-methylpyridin-3-yl)oxy)cyclohexane-1-carboxylic acid], 118 nM. As for `Cc1nc(-c2nnn(C)c2Cn2nnc(C3CCCC3)n2)ccc1O[C@H]1CCC[C@H](C(=O)O)C1` [Example 329, (1S,3S)-3-((6-(5-((5-cyclopentyl-2H-tetrazol-2-yl)methyl)-1-methyl-1H-1,2,3-triazol-4-yl)-2-methylpyridin-3-yl)oxy)cyclo-hexane-1-carboxylic acid], the figure is 14 nM; as for `Cc1nc(-c2nnn(C)c2Cn2nnnc2C2CCCC2)ccc1O[C@H]1CCC[C@H](C(=O)O)C1` [Example 330, (1S,3S)-3-((6-(5-((5-cyclopentyl-1H-tetrazol-1-yl)methyl)-1-methyl-1H-1,2,3-triazol-4-yl)-2-methylpyridin-3-yl)oxy)cyclo-hexane-1-carboxylic acid], 385 nM; as for `Cc1nc(-c2nnn(C)c2Cn2nnc(CC3CCCC3)n2)ccc1O[C@H]1CCC[C@H](C(=O)O)C1` [Example 331, (1S,3S)-3-((6-(5-((5-(cyclopentyl-methyl)-2H-tetrazol-2-yl)methyl)-1-methyl-1H-1,2,3-triazol-4-yl)-2-methylpyridin-3-yl)oxy)cyclohexane-1-carboxylic acid], 7 nM. As for `Cc1nc(-c2nnn(C)c2Cn2nnc(OCC3CCC3)n2)ccc1O[C@H]1CCC[C@H](C(=O)O)C1` [Example 332, (1S,3S)-3-{[6-(5-{[5-(cyclobutyl-methoxy)-2H-1,2,3,4-tetrazol-2-yl]methyl}-1-methyl-1H-1,2,3-triazol-4-yl)-2-methylpyridin-3-yl]oxy}cyclohexane-1-carboxylic acid], the figure is 30 nM.
